Measurements reported in patent US20220273754A1, “SS-31 FOR THE PREVENTION AND/OR TREATMENT OF ANEURYSM” (FUNDACIÓ INSTITUT DE RECERCA DE L'HOSPITAL DE LA SANTA CREU …, priority 2019, published 2022).
Non-standard residues stand in square brackets, D forms with d. No end group written: not given here.

Tests used:
[1] = system: ApoE−/− mice infused with Ang II; experiment: Survival of Ang II-infused ApoE−/− mice; assay type: in vivo; details: 3 mg/kg/day with Ang II 1000 ng/kg/min by osmotic minipump, 28 days
Experimental: (§1) The studies were developed in ApoE^−/− mice bred in the facility. The animals were infused with Ang II dissolved in saline (1000 ng/kg/min) by means of osmotic minipumps (model 1004, Alzet) implanted subcutaneously in the interscapular space of the mice previous anesthesia with isoflurane. The procedure lasted approximately 15 minutes per animal. Immediately after surgery, antibiotics (penicillin, 22,000 u/Kg, i.m.) and analgesics (buprenorphine 0.05 mg/Kg, i.m.) were administered to prevent infections and limit discomfort in the animals. Further, mice were kept on a heating pad until they woke up after surgery and were carefully monitored during the post-surgery period.
(§2) A group of mice infused with Ang II were treated with SS-31 in the form of chloride and dissolved in saline (3 mg/kg/day). Another group of animals infused with Ang II were treated with the SS-20 peptide also in the form of chloride, dissolved in saline and at the same dose. Both were administered together with Ang II by osmotic mini pump during the whole study (28 days). The control group consisted of ApoE^−/− mice infused with saline.

[2] = system: ApoE−/− mice infused with Ang II; experiment: Aortic diameter and aneurysm incidence by ultrasonography in Ang II-infused ApoE−/− mice; assay type: in vivo; details: 28 days; for aortic diameter: 3 mg/kg/day with Ang II 1000 ng/kg/min by osmotic minipump, ultrasonography and macroscopic visualization; for incidence of AAA: 3 mg/kg/day with Ang II 1000 ng/kg/min, aneurysmal = external diameter >= 1.5 mm
Experimental: as §1, §2
The diameter of the aorta was evaluated weekly by abdominal echography using an ultrasound equipment (Vevo2100 Imaging systems; Visualsonics) with a 30 MHz transducer. The mice were anesthetized by inhalation of 1.5% isofluorane and secured in supine position on a thermal platform. After shaving the precord region, the transducer was applied to the abdominal wall to measure the abdominal aorta. Those abdominal aortas with external diameters greater than or equal to 1.5 mm were considered aneurysmal. All measurements were made from the captured images using the analysis software provided by Visualsonics.
(§3) After 4 weeks, the animals were euthanized under intraperitoneal terminal anesthesia with a mixture of medetomidine (1 mg/kg) and ketamine (75 mg/kg) in saline (final volume of 200 μl), the aortas were collected immediately, examined to determine the presence of aneurysms and fixed in paraformaldehyde or frozen in liquid nitrogen for subsequent RNA extraction.

[3] = system: abdominal aorta of ApoE−/− mice infused with Ang II; experiment: Histology (Masson's trichrome, orcein) of abdominal aorta of Ang II-infused ApoE−/− mice; assay type: in vivo; details: 3 mg/kg/day with Ang II 1000 ng/kg/min, 28 days
Experimental: as §1, §2, §3

[4] = system: MMP2; experiment: MMP2 mRNA by real-time PCR in abdominal aorta of Ang II-infused ApoE−/− mice; assay type: in vivo; details: 3 mg/kg/day with Ang II 1000 ng/kg/min, 28 days; normalized to GAPDH
Experimental: as §1
as §2, with “saline. […]” for “saline.”
(§4) The expression levels (mRNA) of the metalloproteinases MMP2 and MMP9 in the abdominal aortas of the different study groups were also analyzed. […]

[5] = system: MMP9; experiment: MMP9 mRNA by real-time PCR in abdominal aorta of Ang II-infused ApoE−/− mice; assay type: in vivo; details: 3 mg/kg/day with Ang II 1000 ng/kg/min, 28 days; normalized to GAPDH
Experimental: as §1
as §2, with “saline. […]” for “saline.”
as §4

[6] = system: mitochondrial permeability transition; details: cited from earlier work
[7] = system: reactive oxygen species (ROS) production and lipid peroxidation; details: direct inhibition; cited from earlier work
[8] = system: mitochondrial swelling and cytochrome c release; details: cited from earlier work
[9] = system: myocardial contractile force during ischemia-reperfusion; details: SS-20 given after ischemia; cited from earlier work
[10] = system: renal mitochondrial respiration; details: after ischemia; cited from earlier work
[11] = system: angiotensin II (AngII)-induced cardiac hypertrophy; details: in vivo; cited from earlier work
[12] = system: diabetic rats; details: cited from earlier work; for body weight: diabetic rats; for lipid metabolism: rat, in vivo
[13] = system: humans and rodents maintained on a high fat diet; details: cited from earlier work

D-Arg-2′,6′-dimethyltyrosine-Lys-Phe-NH2 [SS-31]
survival rate [1]: significantly improved the survival rate | aortic diameter [2]: reduced the increase in aortic diameter significantly | incidence of AAA [2]: significantly decreased the incidence of AAA | disorganization and rupture of elastic fibers (orcein staining) [3]: limited the disorganization and rupture of elastic fibers | vascular remodeling: collagen deposition (Masson's trichrome) [3]: attenuated by treatment with SS-31 | aortic MMP2 expression (mRNA) [4]: attenuated this effect | aortic MMP9 expression (mRNA) [5]: attenuated this effect | mitochondrial permeability transition [6]: inhibits mitochondrial permeability transition | ROS production and lipid peroxidation [7]: directly inhibit reactive oxygen species (ROS) production and lipid peroxidation | mitochondrial swelling and cytochrome c release [8]: inhibits mitochondrial swelling and cytochrome c release | protection of myocardial contractile force [9]: protects myocardial contractile force | renal mitochondrial respiration [10]: significantly improved renal mitochondrial respiration | AngII-induced cardiac hypertrophy, fibrosis and diastolic dysfunction [11]: ameliorates | body weight [12]: useful in reducing body weight | lipid metabolism [12]: beneficial effects on lipid metabolism | insulin resistance [13]: attenuates insulin resistance

F[dR]FK-NH2 [SS-20]
survival rate [1]: did not modify the survival rate | aortic diameter [2]: could not attenuate this increase in the aortic diameter | incidence of AAA [2]: did not alter the aortic diameter nor the incidence of aneurysms | disorganization and rupture of elastic fibers (orcein staining) [3]: not observed in animals treated with SS-20 | vascular remodeling: collagen deposition (Masson's trichrome) [3]: not by treatment with SS-20 | aortic MMP2 expression (mRNA) [4]: did not modify the increase in the mRNA level | aortic MMP9 expression (mRNA) [5]: did not modify the increase in the mRNA level | mitochondrial permeability transition [6]: inhibits mitochondrial permeability transition | ROS production and lipid peroxidation [7]: only SS-31 was demonstrated to directly inhibit | protection of myocardial contractile force [9]: offered no protection | renal mitochondrial respiration [10]: significantly improved renal mitochondrial respiration | body weight [12]: useful in reducing body weight | lipid metabolism [12]: beneficial effects on lipid metabolism
